Assay results taken from ChEMBL document CHEMBL3045944, “Synthesis and antibacterial evaluation of series of novel tri-substituted-s-triazine derivatives” (Med Chem Res, 2011).
≈ marks a conversion by molar mass, not a printed value.

Legend:
[1] = Solubility of the compound in benzene; assay type: physicochemical
Bacillus subtilis = assay: Antibacterial activity against Bacillus subtilis NCIM 2063 after 24 hr by broth dilution method; assay type: functional; settings: NCIM 2063, 24 h
[2] = Solubility of the compound in acetic acid; assay type: physicochemical
Staphylococcus aureus = assay: Antibacterial activity against Staphylococcus aureus NCIM 2079 after 24 hr by broth dilution method; assay type: functional; settings: NCIM 2079, 24 h
Bacillus cereus = assay: Antibacterial activity against Bacillus cereus NCIM 2156 after 24 hr by broth dilution method; assay type: functional; settings: NCIM 2156, 24 h
[3] = Solubility of the compound in chloroform; assay type: physicochemical
[4] = Solubility of the compound in water; assay type: physicochemical
[5] = Solubility of the compound in dilute acids; assay type: physicochemical
Escherichia coli = assay: Antibacterial activity against Escherichia coli NCIM 2065 after 24 hr by broth dilution method; assay type: functional; settings: NCIM 2065, 24 h
[6] = Solubility of the compound in ethanol; assay type: physicochemical
[7] = Solubility of the compound in DMF; assay type: physicochemical
Klebsiella pneumoniae = assay: Antibacterial activity against Klebsiella pneumoniae NCIM 2706 after 24 hr by broth dilution method; assay type: functional; settings: NCIM 2706, 24 h
[8] = Solubility of the compound in ethyl acetate; assay type: physicochemical
[9] = Solubility of the compound in DMSO; assay type: physicochemical
Pseudomonas aeruginosa = assay: Antibacterial activity against Pseudomonas aeruginosa NCIM 2036 after 24 hr by broth dilution method; assay type: functional; settings: NCIM 2036, 24 h

Row | Structure (SMILES) | solubility [1] | MIC (Bacillus subtilis) [µg/mL] | solubility [2] | MIC (Staphylococcus aureus) [µg/mL] | MIC (Bacillus cereus) [µg/mL] | solubility [3] | solubility [4] | solubility [5] | MIC (Escherichia coli) [µg/mL] | solubility [6] | solubility [7] | MIC (Klebsiella pneumoniae) [µg/mL] | solubility [8] | solubility [9] | MIC (Pseudomonas aeruginosa) [µg/mL]
1 | Fc1ccc(Nc2nc(Cl)nc(Nc3ccc(F)cc3)n2)cc1 | soluble | 50 (≈ 150 µM) | soluble | 100 (≈ 300 µM) | 50 (≈ 150 µM) | Insoluble | soluble | Insoluble | 50 (≈ 150 µM) | soluble | Insoluble | 50 (≈ 150 µM) | Insoluble | soluble | 100 (≈ 300 µM)
2 | Fc1ccc(Nc2nc(Cl)nc(Nc3ccc(F)c(Cl)c3)n2)cc1Cl | soluble | 100 (≈ 248 µM) | soluble | 50 (≈ 124 µM) | 100 (≈ 248 µM) | – | soluble | soluble | 100 (≈ 248 µM) | soluble | – | 100 (≈ 248 µM) | – | soluble | 100 (≈ 248 µM)
3 | CN[C@@H]1[C@H](O[C@H]2[C@H](O[C@H]3[C@H](O)[C@@H](O)[C@H](N=C(N)N)[C@@H](O)[C@@H]3N=C(N)N)O[C@@H](C)[C@]2(O)C=O)O[C@@H](CO)[C@H](O)[C@H]1O [STREPTOMYCIN] | – | 6.25 (≈ 10.7 µM) | – | 3.12 (≈ 5.37 µM) | 3.12 (≈ 5.37 µM) | – | – | – | 6.25 (≈ 10.7 µM) | – | – | 6.25 (≈ 10.7 µM) | – | – | 3.12 (≈ 5.37 µM)
4 | Clc1ccc(Nc2nc(Cl)nc(Nc3ccc(Cl)cc3)n2)cc1 | – | 50 (≈ 136 µM) | soluble | 50 (≈ 136 µM) | 100 (≈ 273 µM) | soluble | Insoluble | Insoluble | 25 (≈ 68.2 µM) | soluble | Insoluble | 25 (≈ 68.2 µM) | Insoluble | soluble | 50 (≈ 136 µM)
5 | O=[N+]([O-])c1ccc(Nc2nc(Cl)nc(Nc3ccc([N+](=O)[O-])cc3)n2)cc1 | Insoluble | 100 (≈ 258 µM) | soluble | 50 (≈ 129 µM) | 100 (≈ 258 µM) | soluble | soluble | soluble | 50 (≈ 129 µM) | soluble | Insoluble | 100 (≈ 258 µM) | soluble | soluble | 25 (≈ 64.5 µM)
6 | Clc1nc(Nc2ccc(Br)cc2)nc(Nc2ccc(Br)cc2)n1 | soluble | 100 (≈ 220 µM) | soluble | 100 (≈ 220 µM) | 100 (≈ 220 µM) | Insoluble | Insoluble | soluble | 100 (≈ 220 µM) | soluble | Insoluble | 100 (≈ 220 µM) | soluble | soluble | 100 (≈ 220 µM)
7 | Fc1ccc(Nc2nc(Nc3ccc(F)c(Cl)c3)nc(Nc3nc(-c4ccc(Cl)cc4)cs3)n2)cc1Cl | soluble | 50 (≈ 86.7 µM) | Insoluble | 25 (≈ 43.3 µM) | 100 (≈ 173 µM) | soluble | soluble | soluble | 12.5 (≈ 21.7 µM) | soluble | soluble | 12.5 (≈ 21.7 µM) | soluble | soluble | 25 (≈ 43.3 µM)

Continued, values first:

Row | solubility [1] | MIC (Bacillus subtilis) [µg/mL] | solubility [2] | MIC (Staphylococcus aureus) [µg/mL] | MIC (Bacillus cereus) [µg/mL] | solubility [3] | solubility [4] | solubility [5] | MIC (Escherichia coli) [µg/mL] | solubility [6] | solubility [7] | MIC (Klebsiella pneumoniae) [µg/mL] | solubility [8] | solubility [9] | MIC (Pseudomonas aeruginosa) [µg/mL] | Structure (SMILES)
8 | soluble | 100 (≈ 170 µM) | Insoluble | 50 (≈ 85.1 µM) | 25 (≈ 42.6 µM) | soluble | soluble | soluble | 12.5 (≈ 21.3 µM) | soluble | soluble | 25 (≈ 42.6 µM) | soluble | soluble | 3.12 (≈ 5.32 µM) | O=[N+]([O-])c1ccc(-c2csc(Nc3nc(Nc4ccc(F)c(Cl)c4)nc(Nc4ccc(F)c(Cl)c4)n3)n2)cc1
9 | soluble | 6.25 (≈ 10.9 µM) | Insoluble | 3.12 (≈ 5.46 µM) | 6.25 (≈ 10.9 µM) | Insoluble | soluble | soluble | 6.25 (≈ 10.9 µM) | soluble | soluble | 6.25 (≈ 10.9 µM) | Insoluble | soluble | 3.12 (≈ 5.46 µM) | O=[N+]([O-])c1ccc(Nc2nc(Nc3ccc([N+](=O)[O-])cc3)nc(Nc3nc(-c4ccc([N+](=O)[O-])cc4)cs3)n2)cc1
10 | soluble | – | Insoluble | – | – | soluble | soluble | soluble | – | soluble | soluble | – | soluble | soluble | – | Nc1nc(-c2ccc(Cl)cc2)cs1
11 | soluble | 50 (≈ 96.4 µM) | Insoluble | 50 (≈ 96.4 µM) | 100 (≈ 193 µM) | soluble | soluble | soluble | 25 (≈ 48.2 µM) | soluble | soluble | 50 (≈ 96.4 µM) | Insoluble | soluble | 25 (≈ 48.2 µM) | O=[N+]([O-])c1ccc(-c2csc(Nc3nc(Nc4ccc(F)cc4)nc(Nc4ccc(F)cc4)n3)n2)cc1
12 | soluble | – | Insoluble | – | – | soluble | soluble | soluble | – | soluble | soluble | – | soluble | soluble | – | Nc1nc(-c2ccc([N+](=O)[O-])cc2)cs1
13 | soluble | 100 (≈ 156 µM) | soluble | 100 (≈ 156 µM) | 100 (≈ 156 µM) | Insoluble | soluble | soluble | 100 (≈ 156 µM) | soluble | soluble | 100 (≈ 156 µM) | soluble | soluble | 50 (≈ 78.1 µM) | O=[N+]([O-])c1ccc(-c2csc(Nc3nc(Nc4ccc(Br)cc4)nc(Nc4ccc(Br)cc4)n3)n2)cc1
14 | soluble | 25 (≈ 45.3 µM) | Insoluble | 25 (≈ 45.3 µM) | 12.5 (≈ 22.7 µM) | Insoluble | soluble | soluble | 12.5 (≈ 22.7 µM) | soluble | soluble | 6.25 (≈ 11.3 µM) | Insoluble | soluble | 6.25 (≈ 11.3 µM) | O=[N+]([O-])c1ccc(-c2csc(Nc3nc(Nc4ccc(Cl)cc4)nc(Nc4ccc(Cl)cc4)n3)n2)cc1
